US4515767A, “Radioactive metals complexed with phosphonate derivatives of dicyclopentadienebis(methylamine)” (The Dow Chemical Company, priority 1983, dated 1985)

Key:
[1] = Uptake in end bone and midbone of femur in anesthetized rats, NaI scintillation counting (Table II); assay type: in vivo; conditions: vein, 120 minutes; for % Dose/gram End Bone: femur ends; for % Dose/gram Midbone: femur mid-section; for End-/Mid-bone: femur, ratio of end bone to midbone
Experimental: Fifty μl of the complex prepared in Example 1 was injected into the vein of anesthetized laboratory rats. After 120 minutes the animals were killed and the femurs removed. The ends of the bones were cut away from the mid-section and each section was weighed and analyzed separately. The amount of activity in the bone sections was quantitated using NaI scintillation counting. The results were compared to those of complexes prepared from commercial diphosphonate kits (Table II).

[2] = after intravenous administration; cited from earlier work

| Molecule | % Dose/gram End Bone [1] [% Dose/gram] | % Dose/gram Midbone [1] [% Dose/gram] | End-/Mid-bone [1] | accumulation by bone (in words) [2] |
| --- | --- | --- | --- | --- |
| CC(O)(P(=O)(O)O)P(=O)(O)O [EHDP, hydroxyethanediphosphosphonate] | 3.40 | 1.46 | 2.33 |  |
| O=P(O)(O)OP(=O)(O)O [PYP, pyrophosphate] | 3.50 | 1.78 | 1.97 |  |
| [85Sr] [Sr-85, Strontium-85] |  |  |  | rapidly accumulated by bone |
| methylenediphosphonate [MDP] | 3.95 | 1.90 | 2.08 |  |
